Assay results from patent US10464896B2, “Efflux-pump inhibitors and therapeutic uses thereof” (Basilea Pharmaceutica International AG, priority 2015, dated 2019).

system: E. coli ATCC25922; assay: Antibacterial activity in combination with minocycline (growth inhibition); assay type: cell-based; details: Escherichia coli, ATCC25922, compound at 25 μM; minocycline 0.25 μg/mL; OD625 23 h minus 1 h; read-out: residual growth of E. coli ATCC25922 (% of uninhibited control) with minocycline
In short: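 Test compound combined with fixed subinhibitory partner antibiotic: linezolid 128 μg/mL for either strain, minocycline 0.25 μg/mL (E. coli) or 8 μg/mL (P. aeruginosa), in caMHB shaken at 37 °C. Residual growth as % of inhibitor-free control, from OD625 at 23 h minus 1 h.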

Row | Structure (SMILES) | activity at 25 µM [%]
1 | C=CCOc1cc(CNCC2CNC2)cc(CNS(=O)(=O)c2ccc(C(C)(C)C)cc2)c1 [Example 369, N-[[3-allyloxy-5-[(azetidin-3-ylmethylamino)methyl]phenyl]methyl]-4-tert-butyl-benzenesulfonamide] | ≤ 10
2 | Clc1ccc(C#Cc2cccc(CNCC3CNC3)c2)c(Br)c1 [Example 149, N-(azetidin-3-ylmethyl)-1-[3-[2-(2-bromo-4-chlorophenyl)ethynyl]phenyl]methanamine] | ≤ 10
3 | C=CCOc1cc(/C=C/c2cccc(C(N)=O)c2)cc(CNCC2CNC2)c1 [Example 340] | ≤ 10
4 | NCC1CCC(CNCc2cc(Cl)cc(OCc3ccc(Cl)cc3Br)c2)N1 (centres unmarked) [Example 193] | ≤ 10
5 | Clc1ccc(/C=C\c2cc(CNCC3CNC3)cc(OCCc3ccncc3)c2)c(Br)c1 [Example 257] | ≤ 10
6 | CC(C)COc1cc(/C=C/c2ccccc2C(N)=O)cc(CNCC2CCNC2)c1 (centres unmarked) [Example 375] | ≤ 10
7 | Clc1cc(/C=C/c2ccc(Cl)cc2Br)cc(OCCCNCC2CNC2)c1 [Example 188] | ≤ 10
8 | Clc1ccc(-c2cccc(CNCC3CNC3)c2)c(Br)c1 [Example 75] | ≤ 10
9 | C=CCOc1ccc(/C=C/c2ccc(Cl)cc2Br)cc1CNCC1CCNC1 (centres unmarked) [Example 419] | ≤ 10
10 | C=CCOc1cc(/C=C/c2ccc(C(F)(F)F)c(C#N)c2)cc(CNCC2CNC2)c1 [Example 321] | ≤ 10
11 | Cc1nc(COc2cc(/C=C/c3ccc(Cl)cc3Br)cc(CNCC3CCNC3)c2)cs1 (centres unmarked) [Example 359] | ≤ 10
12 | CC(C)COc1ccc(/C=C/c2ccc(Br)cc2Cl)cc1CNCC1CNC1 [Example 401] | ≤ 10
13 | Clc1ccc(CNc2cccc(CNCC3CNC3)c2)c(Br)c1 [Example 158, 3-[(azetidin-3-ylmethylamino)methyl]-N-[(2-bromo-4-chloro-phenyl)methyl]aniline] | ≤ 10
14 | C=CCOc1cc(/C=C/c2ccc(Cl)cc2Br)cc(CNC(=O)C[N+](C)(C)CC2CNC2)c1 [Example 452] | ≤ 10
15 | NC(=O)COc1cc(/C=C/c2ccc(Cl)cc2Br)cc(CNCC2CCNC2)c1 (centres unmarked) [Example 342] | ≤ 10
16 | Clc1ccc(/C=C/c2cccc(CCNCC3CNC3)c2)c(Br)c1 [Example 165, N-(azetidin-3-ylmethyl)-2-[3-[(E)-2-(2-bromo-4-chloro-phenyl)vinyl]phenyl]ethanamine] | ≤ 10
17 | CC(C)(C)c1ccc(/C=C/c2cccc(CNCC3CNC3)c2)cc1 [Example 234] | ≤ 10
18 | C=CCOc1cc(/C=C/c2cccs2)cc(CNCC2CNC2)c1 [Example 317] | ≤ 10
19 | Clc1cc(/C=C/c2ccc(Cl)cc2Br)cc(OCCCNCC2CCNC2)c1 (centres unmarked) [Example 189] | ≤ 10
20 | Clc1ccc(COc2ccc(CCCNCC3CNC3)cc2)c(Br)c1 [Example 116] | ≤ 10
21 | N#Cc1ccc(/C=C/c2cccc(CNCC3CNC3)c2)cc1C(F)(F)F [Example 308] | ≤ 10
22 | Clc1ccc(/C=C\c2cc(CNCC3CCNC3)cc(OCCc3c[nH]cn3)c2)c(Br)c1 (centres unmarked) [Example 259] | ≤ 10
23 | Clc1ccc(/C=C/c2cc(CNCC3CCNC3)cc(OCc3ccncc3)c2)c(Br)c1 (centres unmarked) [Example 360] | ≤ 10
24 | O=C(O)c1ccc(COc2cc(CNCC3CCNC3)cc(OCc3ccc(Cl)cc3Br)c2)cc1 (centres unmarked) [Example 205] | ≤ 10

Row | Structure (SMILES) | activity at 25 µM [%]
25 | Clc1ccc(COc2cccc(CCNCC3CNC3)c2)c(Br)c1 [Example 121] | ≤ 10
26 | CC(C)COc1cc(CNCC2CCNC2)cc(OCc2ccc(F)cc2C(F)(F)F)c1 (centres unmarked) [Example 280] | ≤ 10
27 | C=CCOc1cc(/C=C/c2ccc(C(C)(C)C)cc2)cc(CNCC2CNC2)c1 [Example 292] | ≤ 10
28 | Clc1ccc(COc2cc(CNCC3CCNC3)cc(OCCc3ccncc3)c2)c(Br)c1 (centres unmarked) [Example 258] | ≤ 10
29 | Clc1ccc(/C=C/c2cc(Cl)ccc2OCCNCC2CNC2)c(Br)c1 [Example 209] | ≤ 10
30 | C=CCOc1cc(/C=C/c2ccc(F)cc2)cc(CNCC2CNC2)c1 [Example 272] | ≤ 10
31 | Nc1nc(COc2cc(/C=C/c3ccc(Cl)cc3Br)cc(CNCC3CCNC3)c2)cs1 (centres unmarked) [Example 361] | ≤ 10
32 | CC(C)COc1cc(CNCC2CCNC2)cc(OCc2ccc(Cl)cc2C(F)(F)F)c1 (centres unmarked) [Example 281] | ≤ 10
33 | CC(C)(c1ccccc1)c1ccc(OCCCNCC2CCNC2)cc1 (centres unmarked) [Example 32] | ≤ 10
34 | Clc1ccc(COc2ccc(CNCC3CCNC3)cc2)cc1Cl (centres unmarked) [Example 70] | ≤ 10
35 | CC(C)COc1cc(/C=C/c2ccc(Cl)cc2Br)cc(CNCC2CCNC2)c1 (centres unmarked) [Example 182] | ≤ 10
36 | CC(C)(c1ccccc1)c1ccc(CNCC2CCNCC2)cc1 [Example 46] | ≤ 10
37 | C=CCOc1cc(C[N+](C)(C)CC2CNC2)cc(OCc2ccc(Cl)cc2Br)c1 [Example 395] | ≤ 10
38 | Clc1ccc(Oc2cccc(CNCC3CNC3)c2)c(Br)c1 [Example 90] | ≤ 10
39 | C=CCOc1ccc(/C=C/c2ccc(Cl)cc2Br)cc1CNCC1CNC1 [Example 421] | ≤ 10
40 | C=CCOc1cc(/C=C/c2nc(C3CC3)cs2)cc(CNCC2CCNC2)c1 (centres unmarked) [Example 355] | ≤ 10
41 | Clc1ccc(/C=C\c2cc(CNCC3CCNC3)cc(OCCN3CCOCC3)c2)c(Br)c1 (centres unmarked) [Example 241] | ≤ 10
42 | C=CCOc1cc(C[N+](C)(C)CC2CCNC2)cc(OCc2ccc(Cl)cc2Br)c1 (centres unmarked) [Example 388] | ≤ 10
43 | Clc1ccc(COc2cc(/C=C/c3ccco3)cc(CNCC3CNC3)c2)c(Br)c1 [Example 130, N-(azetidin-3-ylmethyl)-1-[3-[(2-bromo-4-chloro-phenyl)methoxy]-5-[(E)-2-(2-furyl)vinyl]phenyl]methanamine] | ≤ 10
44 | C=CCOc1cc(/C=C/c2ccc(Cl)cc2Br)cc(CNCCN(CC2CNC2)CC2CNC2)c1 [Example 455] | ≤ 10
45 | Clc1ccc(COc2cccc(CCCNCC3CCNC3)c2)c(Br)c1 (centres unmarked) [Example 112] | ≤ 10
46 | CC(C)COc1cc(CNCC2CCNC2)cc(OCc2ccc(C(F)(F)F)cn2)c1 (centres unmarked) [Example 289] | ≤ 10
47 | c1ccc(-c2ccc(COc3cccc(CNCC4CNC4)c3)cc2)cc1 [Example 95] | ≤ 10
48 | Clc1ccc(COc2cc(CNCC3CCNC3)cc(OCCN3CCOCC3)c2)c(Br)c1 (centres unmarked) [Example 238] | ≤ 10

Row | Structure (SMILES) | activity at 25 µM [%]
49 | CC(C)COc1cc(CNCC2CCNC2)cc(OCc2ccc(F)nc2F)c1 (centres unmarked) [Example 283] | ≤ 10
50 | Brc1ccccc1COc1ccc(CNCC2CCNC2)cc1 (centres unmarked) [Example 80] | ≤ 10
51 | C=CCOc1cc(/C=C/c2cc(C#N)ccn2)cc(CNCC2CCNC2)c1 (centres unmarked) [Example 329] | ≤ 10
52 | Clc1ccc(/C=C/c2cc(CNCC3CNC3)cc(OCc3ccccc3)c2)c(Br)c1 [Example 198] | ≤ 10
53 | CC(C)(C)c1ccc(COc2cc(CNCC3CNC3)cc(OCc3ccccc3)c2)cc1 [Example 297] | ≤ 10
54 | C=CCOc1cc(/C=C/c2ccc(Cl)cc2Br)cc(C[N+](C)(C)CC(=O)NCC2CNC2)c1 [Example 444] | ≤ 10
55 | O=C(NCc1ccccc1)c1cc(CNCC2CNC2)cc(OCc2ccc(Cl)cc2Br)c1 [Example 119, 3-[(azetidin-3-ylmethylamino)methyl]-N-benzyl-5-[(2-bromo-4-chloro-phenyl)methoxy]-benzamide] | ≤ 10
56 | CC(C)(c1ccccc1)c1ccc(OCCNCC2CCNC2)cc1 (centres unmarked) [Example 42] | ≤ 10
57 | C=CCOc1cc(/C=C/c2ccc(C(N)=O)cc2)cc(CNCC2CNC2)c1 [Example 339] | ≤ 10
58 | Clc1ccc(COc2ccc(OCCc3c[nH]cn3)c(CNCC3CCNC3)c2)c(Br)c1 (centres unmarked) [Example 463] | ≤ 10
59 | C=CCOc1ccc(OCc2ccc(Cl)cc2Br)cc1CNCC1CNC1 [Example 413] | ≤ 10
60 | CC(C)(C)c1cc(CNCC2CCNC2)cc(OCc2ccc(Cl)cc2Br)c1 (centres unmarked) [Example 218] | ≤ 10
61 | C=CCOc1cc(/C=C/c2cncc(C(=O)OC)c2)cc(CNCC2CCNC2)c1 (centres unmarked) [Example 457] | ≤ 10
62 | Clc1ccc(/C=C/c2ccc(CNCC3CCNC3)cc2)c(Br)c1 (centres unmarked) [Example 147] | ≤ 10
63 | O=[N+]([O-])c1ccc(CNCC2CCNC2)cc1OCc1ccc(Cl)cc1Br (centres unmarked) [Example 148] | ≤ 10
64 | Clc1ccc(CSc2ccc(CNCC3CCNC3)cc2)c(Br)c1 (centres unmarked) [Example 134] | ≤ 10
65 | C=CCOc1cc(CNCC2CNC2)cc(C(=O)NCc2ccc(Cl)cc2Br)c1 [Example 370] | ≤ 10
66 | C=CCOc1cc(/C=C/c2cccnc2)cc(CNCC2CNC2)c1 [Example 335] | ≤ 10
67 | C=CCOc1cc(/C=C/c2ccc(Cl)cc2Br)cc(C[N+](C)(C)CC2CNC2)c1 [Example 402] | ≤ 10
68 | CC(C)COc1cc(/C=C/c2ccccn2)cc(CNCC2CCNC2)c1 (centres unmarked) [Example 333] | ≤ 10
69 | Cc1cc(COc2ccc(/C=C/c3ccc(Cl)cc3Br)cc2CNC(=O)C2CCNC2)no1 (centres unmarked) [Example 523] | ≤ 10
70 | N[C@@H]1CN[C@@H](CNCc2cc(Cl)cc(OCc3ccc(Cl)cc3Br)c2)C1 [Example 175] | ≤ 10
71 | Clc1ccc(COc2cccc(CCNCC3CCNC3)c2)c(Br)c1 (centres unmarked) [Example 122] | ≤ 10

same assay, conditions: Escherichia coli, ATCC25922, compound at 50 μM; minocycline 0.25 μg/mL; OD625 23 h minus 1 h; read-out: residual growth of E. coli ATCC25922 (% of uninhibited control) with minocycline

Row | Structure (SMILES) | activity at 50 µM [%]
72 | C=CCOc1cc(CNCC2CNC2)cc(OCCc2ccncc2)c1 [Example 423] | ≤ 50
73 | C=CCOc1cc(/C=C/c2cncc(O)c2)cc(CNCC2CCNC2)c1 (centres unmarked) [Example 499] | ≤ 50
74 | Ic1ccccc1COc1cccc(CNCC2CNC2)c1 [Example 195] | ≤ 50
